Like-named read-outs stand apart in the source and are kept apart here.
How the values were obtained:
Assay in all cases: cell-based
hNav1.7 [1] = target: T1, hNav1.7 (Homo sapiens, UniProt Q15858); settings: IonWorks Quattro; read-out: IC50 Nav1.7
hNav1.7 [2] = target: T1, hNav1.7; format: cell-based; settings: PatchXpress, read-out: PX hNav1.7 Tonic IC50
hNav1.4 = hNav1.4 (Homo sapiens, UniProt P35499); settings: for IC50: PatchXpress, read-out: PX hNav1.4 Tonic IC50
hNav1.5 = hNav1.5 (Homo sapiens, UniProt Q14524); settings: PatchXpress, read-out: PX hNav1.5 Tonic IC50
[3] = * = at high concentrations compound would wash off slowly or not at all

hNav1.5, sequence (Q14524 whole entry): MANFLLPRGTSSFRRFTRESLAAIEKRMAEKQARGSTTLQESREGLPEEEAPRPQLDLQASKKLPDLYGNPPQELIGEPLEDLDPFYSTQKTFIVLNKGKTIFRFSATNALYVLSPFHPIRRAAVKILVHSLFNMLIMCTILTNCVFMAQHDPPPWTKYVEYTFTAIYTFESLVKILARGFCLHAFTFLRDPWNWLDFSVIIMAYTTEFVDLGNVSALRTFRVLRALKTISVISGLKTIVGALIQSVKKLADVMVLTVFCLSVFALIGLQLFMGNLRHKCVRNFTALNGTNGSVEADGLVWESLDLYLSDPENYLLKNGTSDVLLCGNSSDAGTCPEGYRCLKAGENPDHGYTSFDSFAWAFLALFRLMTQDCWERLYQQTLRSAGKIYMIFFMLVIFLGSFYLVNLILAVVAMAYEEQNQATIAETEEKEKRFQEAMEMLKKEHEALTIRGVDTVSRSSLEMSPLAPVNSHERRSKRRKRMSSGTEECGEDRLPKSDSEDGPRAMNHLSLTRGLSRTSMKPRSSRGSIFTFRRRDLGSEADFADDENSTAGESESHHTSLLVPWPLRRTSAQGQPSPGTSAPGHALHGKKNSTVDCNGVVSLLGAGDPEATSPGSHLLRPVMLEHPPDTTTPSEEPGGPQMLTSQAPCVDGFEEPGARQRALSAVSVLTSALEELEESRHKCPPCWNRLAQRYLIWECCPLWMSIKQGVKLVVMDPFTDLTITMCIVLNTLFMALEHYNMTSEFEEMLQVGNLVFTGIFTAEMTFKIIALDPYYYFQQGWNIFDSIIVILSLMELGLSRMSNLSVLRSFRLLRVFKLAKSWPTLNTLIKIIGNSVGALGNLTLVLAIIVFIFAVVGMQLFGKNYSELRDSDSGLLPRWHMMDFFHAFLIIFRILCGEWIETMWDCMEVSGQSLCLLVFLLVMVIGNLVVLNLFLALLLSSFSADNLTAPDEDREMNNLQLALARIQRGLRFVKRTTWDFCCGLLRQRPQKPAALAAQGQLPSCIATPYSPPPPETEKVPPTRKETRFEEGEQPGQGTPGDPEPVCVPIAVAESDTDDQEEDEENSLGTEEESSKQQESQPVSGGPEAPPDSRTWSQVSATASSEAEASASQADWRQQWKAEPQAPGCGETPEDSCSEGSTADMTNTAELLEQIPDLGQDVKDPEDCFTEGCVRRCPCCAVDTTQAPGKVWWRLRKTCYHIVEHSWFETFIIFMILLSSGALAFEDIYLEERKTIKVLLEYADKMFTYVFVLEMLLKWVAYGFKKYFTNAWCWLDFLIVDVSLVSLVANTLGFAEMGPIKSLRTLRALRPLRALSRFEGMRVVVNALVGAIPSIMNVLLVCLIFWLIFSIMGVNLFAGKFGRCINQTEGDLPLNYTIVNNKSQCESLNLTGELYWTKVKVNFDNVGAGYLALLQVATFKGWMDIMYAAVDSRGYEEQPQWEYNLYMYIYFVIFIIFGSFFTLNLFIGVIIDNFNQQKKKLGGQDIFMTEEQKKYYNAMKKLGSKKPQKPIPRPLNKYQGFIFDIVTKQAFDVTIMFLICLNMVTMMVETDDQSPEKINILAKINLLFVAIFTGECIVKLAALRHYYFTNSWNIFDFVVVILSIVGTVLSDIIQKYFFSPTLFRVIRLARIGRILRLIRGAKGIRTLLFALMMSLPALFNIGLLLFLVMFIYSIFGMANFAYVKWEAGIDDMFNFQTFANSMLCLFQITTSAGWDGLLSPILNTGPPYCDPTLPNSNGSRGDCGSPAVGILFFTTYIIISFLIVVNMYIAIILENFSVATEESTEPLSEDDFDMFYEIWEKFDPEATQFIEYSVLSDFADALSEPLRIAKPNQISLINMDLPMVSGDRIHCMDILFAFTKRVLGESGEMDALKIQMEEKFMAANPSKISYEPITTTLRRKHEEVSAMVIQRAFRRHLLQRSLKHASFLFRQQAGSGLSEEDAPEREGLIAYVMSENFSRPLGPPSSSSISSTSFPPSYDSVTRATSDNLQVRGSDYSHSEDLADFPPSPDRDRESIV
T1 sequence (Q15858 whole entry): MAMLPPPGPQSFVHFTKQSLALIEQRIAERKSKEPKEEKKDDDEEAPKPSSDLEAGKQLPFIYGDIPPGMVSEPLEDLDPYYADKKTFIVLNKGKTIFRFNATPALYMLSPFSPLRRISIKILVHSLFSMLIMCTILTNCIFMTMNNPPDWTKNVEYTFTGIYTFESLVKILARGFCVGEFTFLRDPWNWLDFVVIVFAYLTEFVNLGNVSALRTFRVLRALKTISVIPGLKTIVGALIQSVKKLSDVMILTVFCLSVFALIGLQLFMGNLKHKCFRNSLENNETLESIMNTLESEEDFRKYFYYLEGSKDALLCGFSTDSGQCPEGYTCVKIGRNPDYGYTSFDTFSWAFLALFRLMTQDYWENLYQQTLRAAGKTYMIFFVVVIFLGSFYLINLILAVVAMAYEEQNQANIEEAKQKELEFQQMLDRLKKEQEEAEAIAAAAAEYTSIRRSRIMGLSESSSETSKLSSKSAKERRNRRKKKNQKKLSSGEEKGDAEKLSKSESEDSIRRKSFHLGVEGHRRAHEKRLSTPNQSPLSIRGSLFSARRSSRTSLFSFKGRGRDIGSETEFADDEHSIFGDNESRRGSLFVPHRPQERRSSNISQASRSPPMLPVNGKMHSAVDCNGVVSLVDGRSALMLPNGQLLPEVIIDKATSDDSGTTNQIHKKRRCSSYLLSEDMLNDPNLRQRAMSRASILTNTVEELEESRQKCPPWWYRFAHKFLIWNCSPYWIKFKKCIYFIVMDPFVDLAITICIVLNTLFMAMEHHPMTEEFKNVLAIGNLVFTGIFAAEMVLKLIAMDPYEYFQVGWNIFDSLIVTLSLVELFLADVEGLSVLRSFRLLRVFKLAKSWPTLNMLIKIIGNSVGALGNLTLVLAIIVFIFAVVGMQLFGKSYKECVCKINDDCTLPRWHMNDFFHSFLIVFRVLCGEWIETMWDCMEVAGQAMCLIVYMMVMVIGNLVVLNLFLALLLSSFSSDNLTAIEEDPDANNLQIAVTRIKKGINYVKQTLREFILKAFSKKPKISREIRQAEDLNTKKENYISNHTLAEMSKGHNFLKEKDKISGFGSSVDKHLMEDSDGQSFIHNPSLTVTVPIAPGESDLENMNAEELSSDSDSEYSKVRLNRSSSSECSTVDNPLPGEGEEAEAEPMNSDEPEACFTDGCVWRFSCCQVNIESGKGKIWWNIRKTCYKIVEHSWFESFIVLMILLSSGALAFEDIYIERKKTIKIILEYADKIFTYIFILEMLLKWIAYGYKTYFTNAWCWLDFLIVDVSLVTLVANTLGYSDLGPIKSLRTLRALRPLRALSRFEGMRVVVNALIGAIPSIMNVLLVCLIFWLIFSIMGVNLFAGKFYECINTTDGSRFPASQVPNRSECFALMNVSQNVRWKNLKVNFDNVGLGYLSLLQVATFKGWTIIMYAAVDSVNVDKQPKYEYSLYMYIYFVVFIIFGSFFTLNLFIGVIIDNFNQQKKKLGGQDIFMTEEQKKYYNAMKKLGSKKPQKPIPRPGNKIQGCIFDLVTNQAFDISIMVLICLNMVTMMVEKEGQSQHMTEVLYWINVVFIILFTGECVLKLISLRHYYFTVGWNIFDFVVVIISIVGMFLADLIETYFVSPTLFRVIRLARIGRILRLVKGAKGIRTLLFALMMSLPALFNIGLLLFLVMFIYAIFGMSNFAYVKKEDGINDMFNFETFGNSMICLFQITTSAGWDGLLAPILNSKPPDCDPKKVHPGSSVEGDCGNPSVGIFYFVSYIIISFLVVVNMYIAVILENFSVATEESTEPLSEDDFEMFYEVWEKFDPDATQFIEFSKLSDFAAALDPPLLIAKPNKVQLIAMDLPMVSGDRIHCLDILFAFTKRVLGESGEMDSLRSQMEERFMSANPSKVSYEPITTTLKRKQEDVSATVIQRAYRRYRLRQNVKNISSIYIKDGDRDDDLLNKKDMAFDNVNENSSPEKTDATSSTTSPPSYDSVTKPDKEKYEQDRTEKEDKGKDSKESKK

Compound	IC50 (hNav1.7 [1]) [nM]	IC50 (hNav1.7 [2]; tonic block) [nM]	IC50 (hNav1.4; tonic block) [nM]	IC50 (hNav1.5; tonic block) [nM]	further results
C#CC[C@H](N)C(=O)N[C@@H](Cc1ccc(O)cc1)C(=O)N[C@H]1CSSC[C@@H]2NC(=O)[C@@H]3CSSC[C@@H](C(=O)N[C@@H](CCCNC(=N)N)C(=O)N[C@@H](CCCCN)C(=O)N[C@H](C(=O)N[C@@H](Cc4ccccc4)C(N)=O)[C@@H](C)CC)NC(=O)[C@H](Cc4c[nH]c5ccccc45)NC(=O)[C@H](CC(C)C)NC(=O)[C@H](CCCCN)NC(=O)[C@H](CSSC[C@H](NC(=O)[C@H]([C@@H](C)O)NC(=O)[C@H](Cc4c[nH]c5ccccc45)NC(=O)[C@H](CCCC)NC(=O)[C@H](Cc4c[nH]c5ccccc45)NC(=O)[C@H](CCCCN)NC(=O)[C@H](CCC(N)=O)NC1=O)C(=O)N[C@@H](CC(=O)O)C(=O)N[C@@H](CO)C(=O)N[C@@H](CCCCN)C(=O)N[C@@H](CCCNC(=N)N)C(=O)N[C@@H](C)C(=O)N3)NC(=O)[C@H](CCC(=O)O)NC(=O)[C@H](CC(C)C)NC(=O)CNC(=O)[C@H](CCC(=O)O)NC2=O [compound 301]	35	–	–	–	–
CCCC[C@@H]1NC(=O)[C@H](Cc2c[nH]c3ccccc23)NC(=O)[C@H](CCCCN)NC(=O)[C@H](CCC(N)=O)NC(=O)[C@@H](NC(=O)[C@@H](N)Cc2ccc(O)cc2)CSSC[C@@H]2NC(=O)[C@@H]3CSSC[C@@H](C(=O)N[C@@H](CCCNC(=N)N)C(=O)N[C@@H](CCCCN)C(=O)N[C@@H](Cc4ccc(O)cc4)C(=O)N[C@H](C(N)=O)[C@@H](C)CC)NC(=O)[C@H](Cc4c[nH]c5ccccc45)NC(=O)[C@H](CC(C)C)NC(=O)[C@H](CCCCN)NC(=O)[C@H](CSSC[C@H](NC(=O)[C@H]([C@@H](C)O)NC(=O)[C@H](Cc4c[nH]c5ccccc45)NC1=O)C(=O)N[C@@H](CC(=O)O)C(=O)N[C@@H](CO)C(=O)N[C@@H](CCCCN)C(=O)N[C@@H](CCCNC(=N)N)C(=O)N[C@@H](C)C(=O)N3)NC(=O)[C@H](CCC(=O)O)NC(=O)[C@H](CC(C)C)NC(=O)CNC(=O)[C@H](CCCCN=[N+]=[N-])NC2=O [compound 322]	67	–	–	–	–
C#CC[C@H](N)C(=O)N[C@@H](Cc1ccc(O)cc1)C(=O)N[C@H]1CSSC[C@@H]2NC(=O)[C@@H]3CSSC[C@@H](C(=O)N[C@@H](CCCNC(=N)N)C(=O)N[C@@H](CCCCN)C(=O)N[C@H](C(=O)N[C@@H](Cc4c[nH]c5ccccc45)C(N)=O)[C@@H](C)CC)NC(=O)[C@H](Cc4c[nH]c5ccccc45)NC(=O)[C@H](CC(C)C)NC(=O)[C@H](CCCCN)NC(=O)[C@H](CSSC[C@H](NC(=O)[C@H]([C@@H](C)O)NC(=O)[C@H](Cc4c[nH]c5ccccc45)NC(=O)[C@H](CCCC)NC(=O)[C@H](Cc4c[nH]c5ccccc45)NC(=O)[C@H](CCCCN)NC(=O)[C@H](CCC(N)=O)NC1=O)C(=O)N[C@@H](CC(=O)O)C(=O)N[C@@H](CO)C(=O)N[C@@H](CCCCN)C(=O)N[C@@H](CCCNC(=N)N)C(=O)N[C@@H](C)C(=O)N3)NC(=O)[C@H](CCCNC(=N)N)NC(=O)[C@H](CC(C)C)NC(=O)CNC(=O)[C@H](CCC(=O)O)NC2=O [compound 296]	19	–	–	–	–
CCCC[C@@H]1NC(=O)[C@H](Cc2c[nH]c3ccccc23)NC(=O)[C@H](CCCCN)NC(=O)[C@H](CCC(N)=O)NC(=O)[C@@H](NC(=O)[C@@H](N)Cc2ccc(O)cc2)CSSC[C@@H]2NC(=O)[C@@H]3CSSC[C@@H](C(=O)N[C@@H](CCCNC(=N)N)C(=O)N[C@@H](CCCCN)C(=O)N[C@H](C(=O)N[C@@H](Cc4c[nH]c5ccccc45)C(N)=O)[C@@H](C)CC)NC(=O)[C@H](Cc4c[nH]c5ccccc45)NC(=O)[C@H](CC(C)C)NC(=O)[C@H](CCCCN)NC(=O)[C@H](CSSC[C@H](NC(=O)[C@H]([C@@H](C)O)NC(=O)[C@H](Cc4c[nH]c5ccccc45)NC1=O)C(=O)N[C@@H](CC(=O)O)C(=O)N[C@@H](CO)C(=O)N[C@@H](CCCCN)C(=O)N[C@@H](CCCNC(=N)N)C(=O)N[C@@H](C)C(=O)N3)NC(=O)[C@H](CCC(=O)O)NC(=O)[C@H](CC(C)C)NC(=O)CNC(=O)[C@H](CCC(=O)O)NC2=O [compound 294]	24	–	–	–	–
CCCC[C@@H]1NC(=O)[C@H](Cc2c[nH]c3ccccc23)NC(=O)[C@H](CCCCN)NC(=O)[C@H](CCC(N)=O)NC(=O)[C@@H](NC(=O)[C@@H](N)Cc2ccc(O)cc2)CSSC[C@@H]2NC(=O)[C@@H]3CSSC[C@@H](C(=O)N[C@@H](CCCNC(=N)N)C(=O)N[C@@H](CCCCN)C(=O)N[C@H](C(=O)N[C@@H](Cc4c[nH]c5ccccc45)C(N)=O)[C@@H](C)CC)NC(=O)[C@H](Cc4c[nH]c5ccccc45)NC(=O)[C@H](CC(C)C)NC(=O)[C@H](CCCCN)NC(=O)[C@H](CSSC[C@H](NC(=O)[C@H]([C@@H](C)O)NC(=O)[C@H](Cc4c[nH]c5ccccc45)NC1=O)C(=O)N[C@@H](CC(=O)O)C(=O)N[C@@H](CO)C(=O)N[C@@H](CCCCN)C(=O)N[C@@H](CCCNC(=N)N)C(=O)N[C@@H](CCCCN=[N+]=[N-])C(=O)N3)NC(=O)[C@H](CCC(=O)O)NC(=O)[C@H](CC(C)C)NC(=O)CNC(=O)[C@H](CCC(=O)O)NC2=O [compound 306]	–	1.15	635	1970	Nav1.4/Nav1.7 (hNav1.4; ratio of PX tonic IC50 values): 550
C#CC[C@H](N)C(=O)N[C@H]1CSSC[C@@H]2NC(=O)[C@@H]3CSSC[C@@H](C(=O)N[C@@H](CCCNC(=N)N)C(=O)N[C@@H](CCCCN)C(=O)N[C@H](C(=O)N[C@H](C(N)=O)[C@@H](C)CC)[C@@H](C)CC)NC(=O)[C@H](Cc4c[nH]c5ccccc45)NC(=O)[C@H](CC(C)C)NC(=O)[C@H](CCCCN)NC(=O)[C@H](CSSC[C@H](NC(=O)[C@H]([C@@H](C)O)NC(=O)[C@H](Cc4c[nH]c5ccccc45)NC(=O)[C@H](CCCC)NC(=O)[C@H](Cc4c[nH]c5ccccc45)NC(=O)[C@H](CCCCN)NC(=O)[C@H](CCC(N)=O)NC1=O)C(=O)N[C@@H](CC(=O)O)C(=O)N[C@@H](CO)C(=O)N[C@@H](CCCCN)C(=O)N[C@@H](CCCNC(=N)N)C(=O)N[C@@H](C)C(=O)N3)NC(=O)[C@H](CCC(=O)O)NC(=O)[C@H](CC(C)C)NC(=O)CNC(=O)[C@H](CCC(=O)O)NC2=O [compound 343]	–	2.63	790	2660	Nav1.4/Nav1.7 (hNav1.4; ratio of PX tonic IC50 values): 300
C#CC[C@H](N)C(=O)NCCCC[C@@H]1NC(=O)[C@H](CCCNC(=N)N)NC(=O)[C@H](CCCCN)NC(=O)[C@H](CO)NC(=O)[C@H](CC(=O)O)NC(=O)[C@@H]2CSSC[C@@H]3NC(=O)[C@H](CCCNC(=N)N)NC(=O)[C@H](CC(C)C)NC(=O)CNC(=O)[C@H](CCC(=O)O)NC(=O)[C@H](CSSC[C@H](NC(=O)[C@H](Cc4ccc(O)cc4)NC(=O)[C@@H](N)CC#N)C(=O)N[C@@H](CCC(N)=O)C(=O)N[C@@H](CCCCN)C(=O)N[C@@H](Cc4c[nH]c5ccccc45)C(=O)N[C@@H](CC(C)C)C(=O)N[C@@H](Cc4c[nH]c5ccccc45)C(=O)N[C@@H]([C@@H](C)O)C(=O)N2)NC(=O)[C@H](CSSC[C@@H](C(=O)N[C@@H](CCCNC(=N)N)C(=O)N[C@@H](CCCCN)C(=O)N[C@@H](CCC(=O)O)C(=O)N[C@H](C(N)=O)[C@@H](C)CC)NC(=O)[C@H](Cc2c[nH]c4ccccc24)NC(=O)[C@H](CC(C)C)NC(=O)[C@H](CCCCN)NC3=O)NC1=O [compound 449]	–	1.5	166	1550	–
CCCC[C@@H]1NC(=O)[C@H](Cc2c[nH]c3ccccc23)NC(=O)[C@H](CCCCN)NC(=O)[C@H](CCC(N)=O)NC(=O)[C@@H](NC(=O)[C@H](Cc2ccc(O)cc2)NC(=O)[C@@H](N)CCN=[N+]=[N-])CSSC[C@@H]2NC(=O)[C@@H]3CSSC[C@@H](C(=O)N[C@@H](CCCNC(=N)N)C(=O)N[C@@H](CCCCN)C(=O)N[C@H](C(=O)N[C@@H](Cc4c[nH]c5ccccc45)C(N)=O)[C@@H](C)CC)NC(=O)[C@H](Cc4c[nH]c5ccccc45)NC(=O)[C@H](CC(C)C)NC(=O)[C@H](CCCCN)NC(=O)[C@H](CSSC[C@H](NC(=O)[C@H]([C@@H](C)O)NC(=O)[C@H](Cc4c[nH]c5ccccc45)NC1=O)C(=O)N[C@@H](CC(=O)O)C(=O)N[C@@H](CO)C(=O)N[C@@H](CCCCN)C(=O)N[C@@H](CCCNC(=N)N)C(=O)N[C@@H](C)C(=O)N3)NC(=O)[C@H](CCC(=O)O)NC(=O)[C@H](CC(C)C)NC(=O)CNC(=O)[C@H](CCC(=O)O)NC2=O [compound 308]	–	1.12	1200	3770	–
CCCC[C@@H]1NC(=O)[C@H](Cc2c[nH]c3ccccc23)NC(=O)[C@H](CCCCN)NC(=O)[C@H](CCC(N)=O)NC(=O)[C@@H](NC(=O)[C@H](Cc2ccc(O)cc2)NC(=O)[C@@H](N)CCC(C)C)CSSC[C@@H]2NC(=O)[C@@H]3CSSC[C@@H](C(=O)N[C@@H](CCCNC(=N)N)C(=O)N[C@@H](CCCCN)C(=O)N[C@H](C(=O)N[C@H](C(N)=O)[C@@H](C)CC)[C@@H](C)CC)NC(=O)[C@H](Cc4c[nH]c5ccccc45)NC(=O)[C@H](CC(C)C)NC(=O)[C@H](CCCCN)NC(=O)[C@H](CSSC[C@H](NC(=O)[C@H]([C@@H](C)O)NC(=O)[C@H](Cc4c[nH]c5ccccc45)NC1=O)C(=O)N[C@@H](CC(=O)O)C(=O)N[C@@H](CO)C(=O)N[C@@H](CCCCN)C(=O)N[C@@H](CCCNC(=N)N)C(=O)N[C@@H](C)C(=O)N3)NC(=O)[C@H](CCCNC(=N)N)NC(=O)[C@H](CC(C)C)NC(=O)CNC(=O)[C@H](CCC(=O)O)NC2=O [compound 377]	–	–	–	–	IC50 (hNav1.7 [2]; [3]): 0.676 nM; IC50 (hNav1.4; [3]): 8.5 nM; Nav1.4/Nav1.7 (hNav1.4; ratio of PX IC50 values): 13; IC50 (hNav1.5; [3]): 420 nM

From US9636418B2 (priority 2013, dated 2017)
